From paper PMC7654512 (Bioorganic & medicinal chemistry letters, 2019)

Tests used:
[1] = Hydrolytic stability of L-Dopa phosphoramidate prodrugs; format: physicochemical; conditions: for hydrolytic stability relative to 1b (in words): 37 °C, 31P NMR, pH not stated at the place
[2] = L-Dopa alone, systemic circulation; cited from earlier work

CC(=O)N[C@H](C(=O)[O-])[C@@H](C)OP(=O)([O-])N[C@@H](Cc1ccc(O)c(O)c1)C(=O)[O-].[K+].[K+].[K+] [1a]
hydrolytic stability relative to 1b (in words) [1]: considerably less stable than the serine analog 1b

CC(=O)N[C@@H](COP(=O)([O-])N[C@@H](Cc1ccc(O)c(O)c1)C(=O)[O-])C(=O)[O-].[K+].[K+].[K+] [1b]
half-life ([1]; buffer, pH 7.4, half-life (t1/2) of hydrolysis, pH 7.4, 37 °C, 31P NMR over 16 h, internal standard TPPO, first-order kinetics): ~10 h

O=C([O-])CCOP(=O)([O-])N[C@@H](Cc1ccc(O)c(O)c1)C(=O)[O-].[K+].[K+].[K+] [1c]
hydrolytic stability relative to 1b (in words) [1]: unstable compared to 1b

CC(=O)NCCOP(=O)([O-])N[C@@H](Cc1ccc(O)c(O)c1)C(=O)[O-].[K+].[K+] [1e]
hydrolytic stability (in words) ([1]; pH 7.4, 37 °C, 31P NMR over 16 h): stable

N[C@@H](Cc1ccc(O)c(O)c1)C(=O)O [L-Dopa, Levodopa]
circulating half-life [2]: approximately 1 h
